The results in this text go back to patent publication US4281009A, “Hydantoin derivatives” (Nippon Zoki Pharmaceutical Co., Ltd., priority 1978, dated 1981).

The subject of one assay is ddY-strain male mice. Nature of the assay: Effect of prolongation of sleeping time (hexobarbital). It is filed as in vivo. The following applies: for change in vivo at 100 mg/kg / change in vivo at 300 mg/kg: Mus musculus, ip; for change in vivo at 100 mg/kg: 100 mg/kg intraperitoneal; for change in vivo at 300 mg/kg: 300 mg/kg intraperitoneal. The essentials:
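Groups of 10 male ddY mice received compounds intraperitoneally along with intraperitoneal sodium hexobarbital. Loss of righting reflex was timed, and prolongation was measured against control mice.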

The next assay concerns isolated duodenum. Briefly: Recovery of acetylcholine sensitivity of isolated duodenum of SART stress mice (Magnus method). It is filed as in vivo, mice (dd-strain male). The following applies: 6th day, Ach 10^-7 g/ml, Average ± S.E. The text has this:
SART stress animals used in the tests described below were raised according to a method of Kita, et al. [Folia Pharmacol. Japan.: 71, 195-210 (1975)].
3. Effect of recovering acetylcholine (Ach) sensitivity of isolated intestinal tract:
Groups each comprising at least 10 dd-strain male mice were used. The compounds of the present invention or other comparative drugs were given intraperitoneally once a day during the stress-causing operation. On the 6th day, Ach (10^-7 g/ml.) sensitivity of isolated duodenum was examined using the Magnus method.

The subject of another assay is dd-strain male mice. Nature of the assay: Inhibitory effect on Tremorine-induced tremor. It is filed as in vivo. As to conditions: 100 mg/kg intraperitoneal; tremorine 10 mg/Kg. Here is the method:
9. Inhibitory effect on Tremorine-induced tremor:
Groups of mice each comprising 10-40 dd-strain male mice were used. Effect of the compounds of the present invention on tremor caused by tremorine was examined. The compounds of the present invention or DPH was given intraperitoneally. 45 minutes thereafter, 10 mg/Kg of tremorine was given intraperitoneally for inducing the tremor.

The next assay deals with Wistar-strain male rats. Nature of the assay: Antiulcerogenic effect on Shay's ulcer (operative ulcer). It is filed as in vivo. The following applies: 10 times. Here is the method:
6.2. Antiulcerogenic effect on Shay's ulcer (operative ulcer):
Tests were carried out by using groups of rats each comprising 5-10 Wistar-strain male rats according to Shay method [Shay Harry; Gastroenterology,; 5, 43 (1945)]. Ulcers in the anterior stomach were classified on the following basis:
2. 1-5 small ulcers (diameter of less than 3 mm)
3. 6 or more small ulcers or one big ulcer (diameter of more than 3 mm)
4. two or more big ulcers

For the molecule `COc1ccc(C2(c3ccc(OC)c(Cl)c3)NC(=O)NC2=O)cc1` (stereo not drawn) [Compound 2, 5-(3-chloro-4-methoxyphenyl)-5-(4-methoxyphenyl)hydantoin], in the assay with ddY-strain male mice, the change in vivo at 100 mg/kg was found to be 55.9% and the change in vivo at 300 mg/kg turned out to be 248%. The “Ach-induced contraction of the isolated deodedum” value (“Ach-induced contraction” below) with isolated duodenum (10 mg/kg/day intraperitoneal) was 80 ± 13%. Besides, the “Inhibitory effect on Tremorine-induced tremor” value in the assay on dd-strain male mice is reported as 38%. Further, in the assay with Wistar-strain male rats (100 mg/kg intraperitoneal), the “Antiulcerogenic effect on Shay's ulcer (operative ulcer)” value (“Antiulcerogenic effect on Shay's ulcer” for short) was 23.4%. In addition, in the assay on Wistar-strain male rats (150 mg/kg intraperitoneal), the “Antiulcerogenic effect on Shay's ulcer” value is 29.3%.

With `O=C1NC(=O)C(c2ccc(O)cc2)(c2ccc(O)cc2)N1` [Compound 4, 5,5-Bis(4-hydroxyphenyl)hydantoin], the figures for the “Effect of prolongation of sleeping time” value with ddY-strain male mice (20 mg/kg intraperitoneal) and in the assay with ddY-strain male mice (50 mg/kg intraperitoneal) were 37.2% and 84.4%, respectively. In addition, the change in vivo at 100 mg/kg in the assay with ddY-strain male mice is 124%. Besides, the entries for the “Ach-induced contraction” value in the assay on isolated duodenum (5 mg/kg/day intraperitoneal) and with isolated duodenum (10 mg/kg/day intraperitoneal) were 61 ± 16% and 95 ± 10%, respectively. Further, in the assay on dd-strain male mice, the “Inhibitory effect on Tremorine-induced tremor” value amounted to 54%. Besides, the “Antiulcerogenic effect on Shay's ulcer” value with Wistar-strain male rats (25 mg/kg intraperitoneal) is 26.4%; in the assay with Wistar-strain male rats (50 mg/kg intraperitoneal) it was 38.0%; in the assay with Wistar-strain male rats (100 mg/kg intraperitoneal), 50.0%; with Wistar-strain male rats (150 mg/kg intraperitoneal), 64.8%.

Turning to `O=C1NC(=O)C(c2cc(O)c(O)c(O)c2)(c2cc(O)c(O)c(O)c2)N1` [Compound 36, 5,5-Bis(3,4,5-trihydroxyphenyl)hydantoin], in the assay with ddY-strain male mice, the change in vivo at 100 mg/kg was found to be 11.3% and the change in vivo at 300 mg/kg is 46.7%. Further, the “Ach-induced contraction” value in the assay on isolated duodenum (10 mg/kg/day intraperitoneal) was 83 ± 8%. In addition, the “Antiulcerogenic effect on Shay's ulcer” value in the assay on Wistar-strain male rats (100 mg/kg intraperitoneal) is 30.1%. Besides, the “Antiulcerogenic effect on Shay's ulcer” value with Wistar-strain male rats (150 mg/kg intraperitoneal) is 43.9%.
